Test results reported in patent publication US11771685B2, “Compounds for the treatment of neurological or mitochondrial diseases” (MUSC FOUNDATION FOR RESEARCH DEVELOPMENT, priority 2018, dated 2023).
Like-named read-outs stand apart in the source and are kept apart here.

How the values were obtained:
[1] = In vivo pharmacokinetics in CD-1 mice; set-up: species or system mouse; details: for Vd: read-out: Vss; for concentration at 24 hr / concentration at 8 hr: read-out: Clast; for concentration at 8 hr: 8 hr post-dose
Procedure: (§1) PK studies on 3 and 25 were carried out in CD-1 mice. Three males were dosed via oral gavage needle for oral administration at 20 mg/kg (10 mL/kg) or via intravenous administration at 5 mg/kg (10 mL/kg). Blood samples were taken at time intervals between 5 min and 24 hr from each animal.
The PK studies of 1 were performed by WuXi AppTec and PK studies of 3 and 25 were performed by Touchstone Biosciences (Peng et al., 2006b; Peng et al., 2001; Peng et al., 2006a; Peng et al., 2009). Male CD-1 mice were fed a standard laboratory rodent diet and housed in individual cages on a 12 hr light and 12 hr dark cycle with room temperature maintained at 22±3° C. and relative humidity at 50±20%. Animals were typically fasted overnight before dosing, with food returned after the 6 hr blood samples were obtained. Water was provided ad libitum throughout the study. The dosing solution of each test compound was prepared in a desired oral or intravenous formulation. Three to four animals were dosed via gavage needle for oral administration at 10-20 mg/kg (10-20 mL/kg) or via tail vein injection for IV administration at 2-5 mg/kg (2-5 mL/kg). […] Fluid replacement (1.5 mL of 0.9% NaCl injection, USP) was administered subcutaneously once after the 2 hr blood sampling. Blood samples were collected in BD Microtainer tubes coated with anticoagulant, placed on ice, and within 30 min, centrifuged at 15,000 g for 5 min to obtain plasma samples. All plasma samples were stored at −70° C. until analysis.
Plasma samples were prepared as follows. Three volumes of acetonitrile containing internal standard was added to one volume of plasma to precipitate proteins. Samples were centrifuged (3000 g for 10 min) and supernatant removed for analysis by LC-MS/MS. Calibration standards and quality controls were made by preparation of a 1 mg/mL stock solution and subsequently a series of working solutions in methanol:water (1:1, v/v) which were spiked into blank plasma to yield a series of calibration standard samples in the range of 1.0 ng/mL to 10 μg/mL and quality control samples at three concentration levels (low, middle and high). All incurred PK/PD plasma samples were treated identically to the calibration standards and quality control samples. LC-MS-MS analysis was performed utilizing multiple reaction monitoring for detection of characteristic ions for each drug candidate, additional related analytes and internal standard.
Plasma concentrations were measured as described above to determine a concentration vs. time profile. The area under the plasma concentration vs time curve (AUC) was calculated using the linear trapezoidal method. Fitting of the data to obtain pharmacokinetic parameters was carried out using non-compartmental analysis. Key PK parameters reported following intravenous administration are as follows: terminal half-life t1/2, initial plasma concentration C0, area under the plasma concentration vs. time curve AUC, volume of distribution at steady-state Vss, total plasma clearance CLp, and mean residence time MRT. Key PK parameters reported following extravascular administration are as follows: terminal half-life t1/2, maximum plasma concentration Cmax, time to reach maximum plasma concentration tmax, area under the plasma concentration vs. time curve AUC, mean residence time MRT, and bioavailability F. All parameters are expressed for individual animals as well as mean, standard deviation, and coefficient of variation.

[2] = system: rat brain slices; test: Rat in vitro spontaneous electrographic bursting model
Procedure: Synthesis for both compounds has been successfully scaled up. The pharmacokinetic (PK) parameters of these two Vitamin K analogs were determined via intravenous, intraperitoneal and oral administration in mice, and preliminary in vitro ADMET parameters were assessed (Table 3). These compounds are Ames-negative, have hepatic stability greater than 1 hour, can be formulated in oral solution and IV injection solution, can be synthesized in greater than 1 mg quantities, and have established brain PK. However, brain tissue binding was high for both compounds (97-98%). Both 3 (NT-181) and 17 (NT-102) have been tested for efficacy in the 6 Hz mouse seizure model at 22 mA and 32 mA, the corneal kindled mouse model, and the rat in vitro spontaneous electrographic bursting model of pharmacoresistance (Table 4). […] Preliminary studies with this new formulation reveal excellent solubility with full protection in the 6 Hz mouse seizure model at 22 mA, and quantification of both compounds (using this new formulation) in this model at 22 mA, 32 mA and 44 mA, is being performed as well as retesting in the corneal kindled model. […] Rat PK assessments will be performed, and seizure protection assessed in rat models in the ADD workflow such as the 6 Hz model and lamotrigine-resistant amygdala kindled mode.

[3] = Liver microsome stability; format: in vitro ADME; details: in vitro; for half-life: liver microsomes, read-out: Liver microsome stability (t1/2)
[4] = Clinical observations in dosed mice; format: in vivo; details: for pigmented urine: efficacy studies, 5% DMSO:95% Neobee formulation; for clinical symptoms during the IV study: intravenous 5 mg/kg, CD-1 mice
Procedure: as §1
PO PK experiments were repeated for 25, with oral dosing at 20 mg/kg and 10 mL/kg of a suspension with 1% Tween 80:1% carboxymethylcellulose in water.
Table 2 provides a summary of efficacy studies in vivo in mice, and in rat brain slices, using the 5% DMSO:95% Neobee formulation.

[5] = intraperitoneal 20 mg/kg, 5% DMSO: 95% neobee
[6] = intravenous 5 mg/kg, 20% DMA: 40% PEG300: 40% H2O
[7] = intravenous, 3 and 25 at 5 mg/kg, 5 mg/kg
[8] = male, CD-1, mouse, plasma, ip, 20 mg/kg, intraperitoneal 20 mg/kg, 5% DMSO: 95% neobee
[9] = male, CD-1, mouse, plasma, iv, 5 mg/kg, intravenous 5 mg/kg, 20% DMA: 40% PEG300: 40% H2O
[10] = male, CD-1, mouse, plasma, iv, 5 mg/kg, intravenous 5 mg/kg, 20% DMA: 40% PEG300: 40% H2O, read-out: CLp
[11] = male, CD-1, mouse, plasma, iv, 5 mg/kg, intravenous, 3 and 25 at 5 mg/kg, read-out: CL
[12] = male, CD-1, mouse, plasma, iv, 5 mg/kg, intravenous, 3 and 25 at 5 mg/kg
[13] = male, CD-1, mouse, plasma, iv, 5 mg/kg, 3 and 25 at 5 mg/kg
[14] = male, CD-1, mouse, plasma, po, 20 mg/kg, oral 20 mg/kg, 5% DMSO: 95% Neobee
[15] = male, CD-1, mouse, plasma, po, 20 mg/kg, oral 20 mg/kg, 20% DMA-40% PEG300-40% H2O
[16] = male, CD-1, mouse, plasma, po, 20 mg/kg, oral 20 mg/kg, 20% DMA-40% PEG300-40% H2O, read-out: Cmax
[17] = male, CD-1, mouse, plasma, intraperitoneal 20 mg/kg, 5% DMSO: 95% neobee
[18] = male, CD-1, mouse, plasma, intravenous, 5 mg/kg
[19] = male, CD-1, mouse, plasma, intravenous, 3 and 25 at 5 mg/kg
[20] = male, CD-1, mouse, plasma, oral 20 mg/kg, 5% DMSO: 95% Neobee
[21] = male, CD-1, mouse, plasma, oral 20 mg/kg, 20% DMA-40% PEG300-40% H2O
[22] = oral 20 mg/kg, 5% DMSO: 95% Neobee
[23] = oral 20 mg/kg, 20% DMA-40% PEG300-40% H2O
[24] = male, CD-1, mouse, plasma, po, 20 mg/kg, oral 20 mg/kg, suspension 1% Tween 80:1% carboxymethylcellulose in water

## CCC#CCNC1=CC(=O)c2ccccc2C1=O [Compound 3, 2-(Pent-2-yn-1-ylamino)naphthalene-1,4-dione]
[1]; [5]
  tlast: 24 h
[1]; [6]
  Clast: 1.37 ng/mL
[1]; intravenous, 5 mg/kg
  AUCinf/D: 89.6 h·(ng/mL)/(mg/kg)
  tlast: 24 h
[1]; [7]
  t1/2: ~15 h
[1]; male, CD-1, mouse, brain/plasma, listed under intravenous 5 mg/kg, read-out: Brain Plasma Ratio
  Kp: 0.373
[1]; [8]
  AUC(0-t): 463 ng·h/mL
  half-life: 7.25 h
[1]; [9]
  AUC(0-inf): 448 ng·h/mL
  AUC(0-t): 421 ng·h/mL
  MRT inf: 4.28 h
  half-life: 14.7 h
  Vd: 48.6 L/kg
[1]; [10]
  clearance: 188 mL/min/kg
[1]; [11]
  clearance: 188 mL/min/kg
[1]; [12]
  Vd: 48.6 L/kg
[1]; [13]
  AUC(0-inf): 448 ng·h/mL
  AUC(0-t): 421 ng·h/mL
  MRT inf: 4.28 h
  half-life: 14.7 h
[1]; [14]
  AUC(0-inf): 688 ng·h/mL
  AUC(0-t): 682 ng·h/mL
  MRT inf: 5.71 h
  Tmax: 4 h
  half-life: 3.34 h
[1]; male, CD-1, mouse, plasma, po, 20 mg/kg, oral 20 mg/kg, 5% DMSO: 95% Neobee, read-out: Cmax
  Cmax: 90.2 ng/mL
[1]; [15]
  AUC(0-inf): 992 ng·h/mL
  AUC(0-t): 738 ng·h/mL
  MRT inf: 5.82 h
  Tmax: 0.139 h
  half-life: 5.27 h
[1]; [16]
  Cmax: 394 ng/mL
[1]; [17]
  concentration at 24 hr: 1.47 ng/mL
[1]; [18]
  concentration at 24 hr: 1.37 ng/mL
[1]; [19]
  C0: 1520 ng/mL
[1]; [20]
  concentration at 24 hr: 1.21 ng/mL
[1]; [21]
  concentration at 8 hr: 33.1 ng/mL
[1]; [22]
  F: 38.4%
  tlast: 24 h
[1]; [23]
  AUCinf/D: 49.6 h·(ng/mL)/(mg/kg)
  Cmax/D: 19.8 (ng/mL)/(mg/kg)
  F: 55.3%
  tlast: 8 h
[2]; 5 uM
  Number protected: 0/8 at 5 uM
[3]; listed as NT-181
  Liver microsome stability (t1/2): >1 h
[3]
  half-life: > 1 h
[4]
  pigmented urine: showed pigmented urine
  clinical symptoms during the IV study: no abnormal clinical symptoms

## CC(C)CCOC1=CC(=O)c2ccccc2C1=O [Compound 25, 2-(Isopentyloxy)naphthalene-1,4-dione]
[1]; intravenous, 5 mg/kg
  AUCinf/D: 242 h·(ng/mL)/(mg/kg)
  tlast: 24 h
[1]; [7]
  CL: 69 mL/min/kg
  Vss: 13 L/kg
[1]; [11]
  clearance: 68.8 mL/min/kg
[1]; [12]
  Vd: 13.2 L/kg
[1]; [13]
  AUC(0-inf): 1210 ng·h/mL
  AUC(0-t): 1200 ng·h/mL
  MRT inf: 3.2 h
  half-life: 4.31 h
[1]; [15]
  AUC(0-inf): 11500 ng·h/mL
  AUC(0-t): 7360 ng·h/mL
  MRT inf: 7.84 h
  Tmax: 0.333 h
  half-life: 5.56 h
[1]; [16]
  Cmax: 2080 ng/mL
[1]; [24]
  AUC(0-inf): 1950 ng·h/mL
  half-life: 3.49 h
[1]; male, CD-1, mouse, plasma, po, 20 mg/kg, oral 20 mg/kg, suspension 1% Tween 80:1% carboxymethylcellulose in water, read-out: Cmax
  Cmax: 282 ng/mL
[1]; male, CD-1, mouse, plasma, po, 20 mg/kg, oral 20 mg/kg, suspension 1% Tween 80:1% carboxymethylcellulose in water, read-out: oral bioavailability (F)
  bioavailability: 40.3%
[1]; [18]
  concentration at 24 hr: 2.26 ng/mL
[1]; [19]
  C0: 1600 ng/mL
[1]; [21]
  concentration at 8 hr: 531 ng/mL
[1]; oral 20 mg/kg
  decrease of Cmax and AUC, suspension vs solution formulation: 6-7 fold
[1]; [23]
  AUCinf/D: 576 h·(ng/mL)/(mg/kg)
  Cmax/D: 104 (ng/mL)/(mg/kg)
  tlast: 8 h
[1]; oral 20 mg/kg, 20% DMA-40% PEG300-40% H2O, 20 mg/kg
  T1/2: 5.6 h
[1]; oral 20 mg/kg, suspension 1% Tween 80:1% carboxymethylcellulose in water, 20 mg/kg
  oral bioavailability (F): 40%
[4]
  clinical symptoms during the IV study: no abnormal clinical symptoms
[4]; oral 20 mg/kg, suspension 1% Tween 80:1% carboxymethylcellulose in water
  clinical symptoms after oral dosing: No abnormal clinical symptoms

## CC(C)CCNC1=CC(=O)c2ccccc2C1=O [Compound 17, 2-(Isopentylamino)naphthalene-1,4-dione]
[1]; [5]
  T1/2: 3.38 h
  tlast: 24 h
[1]; [6]
  Clast: 0.154 ng/mL
  T1/2: 4.47 h
[1]; [8]
  AUC(0-t): 1720 ng·h/mL
[1]; [9]
  AUC(0-inf): 637 ng·h/mL
  MRT inf: 0.874 h
  Vd: 6.89 L/kg
[1]; [10]
  clearance: 131 mL/min/kg
[1]; [14]
  AUC(0-inf): 914 ng·h/mL
  MRT inf: 2.5 h
  Tmax: 0.25 h
[1]; [17]
  concentration at 24 hr: 1.95 ng/mL
[1]; male, CD-1, mouse, plasma, intravenous 5 mg/kg, 20% DMA: 40% PEG300: 40% H2O
  C0: 1910 ng/mL
[1]; [20]
  concentration at 24 hr: 1.43 ng/mL
[1]; [22]
  Cmax: 1025 ng/mL
  F: 35.9%
  t1/2: 5.28 h
  tlast: 24 h
[2]; 10 uM
  Number protected: 0/9 at 10 uM
[3]; listed as NT-102
  Liver microsome stability (t1/2): >1 h
[3]
  half-life: > 1 h
[4]
  pigmented urine: Pigmented urine was not seen
